The values below are quoted from earlier work in US8648203B2 (priority 2005, dated 2014).

Data set [1] has as its system potato Phycophthora infestans. To be noted: field tests.
For another data set, the system named is mites. The following applies: repeated treatments in the field.

As for `O=[N+]([O-])c1cc(C(F)(F)F)c(Cl)c([N+](=O)[O-])c1Nc1ncc(C(F)(F)F)cc1Cl` [fluazinam, 3-chloro-N-(3-chloro-5-trifluoromethyl-2-pyridyl)-α,α,α-trifluoro-2,6-dinitro-p-toluidine], the “activity against potato Phycophthora infestans” value in data set [1] is given as “excellent activity”. Further, in the data set on mites, the population of mites entry was “significantly reduce the population of mites”.
